Structures can show the parent of a compound that is named as a salt. Where only a bound is given, the exact number is not on record here.

In general, EC50 refers to the concentration at which the effect is half-maximal.

Sequence of Sphingosine 1-phosphate receptor 1 (P21453 whole entry): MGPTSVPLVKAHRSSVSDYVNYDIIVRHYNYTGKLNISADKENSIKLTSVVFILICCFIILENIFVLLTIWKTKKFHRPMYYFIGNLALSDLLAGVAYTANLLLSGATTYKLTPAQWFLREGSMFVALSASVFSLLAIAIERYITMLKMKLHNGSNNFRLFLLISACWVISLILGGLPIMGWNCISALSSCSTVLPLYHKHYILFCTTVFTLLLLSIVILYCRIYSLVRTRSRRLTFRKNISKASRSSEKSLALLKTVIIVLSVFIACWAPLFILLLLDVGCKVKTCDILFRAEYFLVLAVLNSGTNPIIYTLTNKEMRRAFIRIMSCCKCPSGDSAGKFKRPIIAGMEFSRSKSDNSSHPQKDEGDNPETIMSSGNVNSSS

The first assay addresses Sphingosine 1-phosphate receptor 1 (Homo sapiens, UniProt P21453). In words: potentiators of S1P1 agonist response, dose response, cell-based, potentiator mode, 60K MLSMR set (AID 466).
Settings: not given
Turning to `CC1(C)CC(=O)C(=CNc2ccc3[nH]ncc3c2)C(=O)C1` [SMR000111453], the EC50 is 6.01 µM.
On the same count and under the same terms, the same measure for `Clc1ccc(OCc2nnc(-c3ccccc3Br)o2)c(Cl)c1` [2-(2-bromophenyl)-5-[(2,4-dichlorophenoxy)methyl]-1,3,4-oxadiazole]: > 95 µM; for `O=C(CSc1nnc(-c2cc3ccccc3cc2O)n1Cc1ccco1)c1ccc(F)cc1` [(3Z)-3-[3-[2-(4-fluorophenyl)-2-oxidanylidene-ethyl]sulfanyl-4-(furan-2-ylmethyl)-1H-1,2,4-triazol-5-ylidene]naphthalen-2-one]: 23.1 µM; for `Oc1ccc(-c2nc(-c3ccc(O)c(O)c3)cs2)cc1`: 13.1 µM.
The same measure, in the same setting: with `COCCN(C(=O)c1ccccc1)c1nnc(-c2cccnc2)s1` [MLS000032523] the figure was 4.83 µM; with `Cc1cc(C(=O)Nc2sc(C)c(-c3ccc(F)cc3)c2C(N)=O)no1` [MLS000043467], 5.47 µM.
On the same count and under the same terms, with `O=C(Nc1ccccc1C(F)(F)F)c1cc(-c2ccc(O)cc2)on1` [5-(4-hydroxyphenyl)-N-[2-(trifluoromethyl)phenyl]isoxazole-3-carboxamide] the figure was 0.778 µM.
In the case of `Clc1ccc(OCc2nc(-c3ccncc3)no2)c(Br)c1` [5-[(2-bromanyl-4-chloranyl-phenoxy)methyl]-3-pyridin-4-yl-1,2,4-oxadiazole], the EC50 amounted to 3.45 µM.
Still for that read-out and setting: the same measure for `COc1ccc2[nH]c(=O)c3c(c2c1)OC(C)(C)C=C3`: 6.25 µM; for `O=C(NCc1ccccc1)N1CCN(c2ccc(Cl)c(Cl)c2)CC1` [4-(3,4-dichlorophenyl)-N-(phenylmethyl)-1-piperazinecarboxamide]: 6.67 µM.
Still for that read-out and setting: the same measure for `COc1ccccc1Oc1ccc2c(c1)C(=O)N(c1ccc(O)cc1)C2=O` [2-(4-hydroxyphenyl)-5-(2-methoxyphenoxy)isoindole-1,3-dione]: 0.151 µM; for `COc1ccc(S(=O)(=O)N2CCN(c3ccc(C)cc3C)CC2)cc1OC` [1-(3,4-dimethoxyphenyl)sulfonyl-4-(2,4-dimethylphenyl)piperazine]: 7.77 µM; for `CCOC(=O)c1c(C)[nH]c(C(=O)C(C)OC(=O)c2cccc(OCc3c(C)noc3C)c2)c1C` (centres undefined) [MLS000054923]: 4.58 µM.
On the same count and under the same terms, the same measure for `COCC(=O)Nc1cccc(C(F)(F)F)c1` [2-methoxy-N-[3-(trifluoromethyl)phenyl]acetamide]: > 95 µM; for `COc1ccc(-n2c(O)cc(Sc3nnc[nH]3)c2O)c(OC)c1` [1-(2,4-dimethoxyphenyl)-3-(1H-1,2,4-triazol-5-ylthio)pyrrolidine-2,5-dione]: 16.4 µM; for `CCCCNc1cc(C)nc(NCc2ccccc2)n1` [2-N-benzyl-4-N-butyl-6-methylpyrimidine-2,4-diamine]: 5.39 µM.
Regarding `CC(=O)c1c(C)[nH]c(C(=O)OCCCCN2C(=O)c3ccccc3C2=O)c1C` [4-acetyl-3,5-dimethyl-1H-pyrrole-2-carboxylic acid 4-(1,3-dioxo-2-isoindolyl)butyl ester], the EC50 is 2.1 µM.
The same measure, in the same setting: the same measure for `N#C/C(=C/c1ccc(N2CCCCCC2)o1)c1ccc(F)cc1` [MLS000051438]: > 10 µM.
In the case of `CCC(NC(=O)Nc1nnc(C(F)(F)F)s1)(C(F)(F)F)C(F)(F)F`, the EC50 was > 95 µM.
The same measure, in the same setting: the same measure for `COc1ccccc1-c1cc(C(=O)Nc2ccccc2SC)no1` [5-(2-methoxyphenyl)-N-(2-methylsulfanylphenyl)-1,2-oxazole-3-carboxamide]: 5.75 µM.
Same read-out and setting: the same measure for `O=S1(=O)C=C(Sc2nc3cc(Cl)ccc3o2)c2ccccc21` [SMR000019512]: > 30 µM; for `Cc1ccc2[nH]c3c(N4CCN(Cc5ccc6c(c5)OCO6)CC4)ncnc3c2c1`: > 30 µM.
For `c1ccc(CNc2ncnc3ccccc23)cc1` [N-benzylquinazolin-4-amine], the EC50 worked out at 4.27 µM.
For `COc1cccc2sc(Nc3nc(-c4ccccn4)cs3)nc12` [(4-methoxy-1,3-benzothiazol-2-yl)-[4-(2-pyridyl)thiazol-2-yl]amine], the EC50 was 2.64 µM.
Still for that read-out and setting: the same measure for `COCCn1c(C)cc(C(=O)CSc2nc3ccccc3o2)c1C` [2-(1,3-benzoxazol-2-ylsulfanyl)-1-[1-(2-methoxyethyl)-2,5-dimethyl-pyrrol-3-yl]ethanone]: > 95 µM; for `Cc1cccc(-c2nc(CSCC(=O)N3CCN(Cc4ccc5c(c4)OCO5)CC3)c(C)o2)c1` [1-(1,3-benzodioxol-5-ylmethyl)-4-[({[5-methyl-2-(3-methylphenyl)-1,3-oxazol-4-yl]methyl}thio)acetyl]piperazine]: 5.42 µM; for `Nc1ccc(N2CCCCCC2)cc1` [4-(1-azepanyl)aniline;hydrochloride]: > 30 µM.
Still for that read-out and setting: the same measure for `CC(C)C(c1nnnn1Cc1ccccc1)N(Cc1ccco1)Cc1cccs1` (centres undefined) [1-(1-benzyltetrazol-5-yl)-N-(furan-2-ylmethyl)-2-methyl-N-(thiophen-2-ylmethyl)propan-1-amine]: > 95 µM.
For `CCn1nc(-c2ccccc2)nc2c(=O)n(C)c(=O)nc1-2` [1-Ethyl-6-methyl-3-phenyl-1H-pyrimido[5,4-e][1,2,4]triazine-5,7-dione], the EC50 came out at 4.29 µM.
The same measure, in the same setting: the same measure for `Cc1csc(NC(=O)c2nc(-c3ccccc3)n(-c3ccccc3)n2)n1` [MLS000058347]: 9.69 µM.
The same measure, in the same setting: the same measure for `CC1=NC(=O)NC(c2ccccc2)C1C(=O)OCc1ccc2c(c1)OCO2` (centres undefined) [1,3-benzodioxol-5-ylmethyl 6-methyl-2-oxidanylidene-4-phenyl-3,4-dihydro-1H-pyrimidine-5-carboxylate]: 3.42 µM; for `Cc1cc(C(=O)CSc2nc3ccccc3c(=O)n2C)c(C)n1Cc1ccc2c(c1)OCO2` [2-[2-[1-(1,3-benzodioxol-5-ylmethyl)-2,5-dimethyl-pyrrol-3-yl]-2-oxidanylidene-ethyl]sulfanyl-3-methyl-quinazolin-4-one]: 5.57 µM.
The same measure, in the same setting: the same measure for `O=C1C2CCCN2C(c2cccnc2)N1c1cccc(Cl)c1` (centres undefined) [2-(3-chlorophenyl)-3-(3-pyridinyl)-5,6,7,7a-tetrahydro-3H-pyrrolo[1,2-c]imidazol-1-one]: > 95 µM; for `Cc1noc(/C=C/N(C)C)c1S(=O)(=O)N1CCN(c2ccccc2)CC1` [(E)-N,N-dimethyl-2-[3-methyl-4-(4-phenylpiperazin-1-yl)sulfonyl-1,2-oxazol-5-yl]ethenamine]: > 95 µM.
In the case of `c1ccc(-c2ccc(-c3nc(-c4cccnc4)no3)cc2)cc1` [5-(4-phenylphenyl)-3-(3-pyridinyl)-1,2,4-oxadiazole], the EC50 stood at 1.91 µM.
Still for that read-out and setting: the same measure for `Fc1ccc2[nH]c3c(N4CCN(Cc5ccc6c(c5)OCO6)CC4)ncnc3c2c1` [4-[4-(1,3-benzodioxol-5-ylmethyl)-1-piperazinyl]-8-fluoro-5H-pyrimido[5,4-b]indole]: 2 µM; for `CC(=N)C(C#N)C(=O)CSc1nc2cc(Cl)ccc2s1` (centres undefined) [(E)-3-amino-2-[2-[(5-chloro-1,3-benzothiazol-2-yl)sulfanyl]acetyl]but-2-enenitrile]: 11.1 µM.
Same read-out and setting: with `COc1ccc(-n2c(C)cc(C(=O)CSc3nnc(-c4cccs4)o3)c2C)cc1` [1-[1-(4-methoxyphenyl)-2,5-dimethyl-3-pyrrolyl]-2-[(5-thiophen-2-yl-1,3,4-oxadiazol-2-yl)thio]ethanone] the figure was 1.96 µM; with `CCOc1ccc(S(=O)(=O)N2CCN(c3ccc(C)cc3C)CC2)cc1` [1-(2,4-dimethylphenyl)-4-(4-ethoxyphenyl)sulfonyl-piperazine], > 95 µM.

Staying with this assay, now noted: inactive by the depositor's call.
As to `CCOc1ccc(Cc2nc(-c3nonc3N)no2)cc1OCC` [4-[5-(3,4-diethoxybenzyl)-1,2,4-oxadiazol-3-yl]-1,2,5-oxadiazol-3-amine], the EC50 was 12.6 µM.
On the same count and under the same terms, the same measure for `CCN(CC)S(=O)(=O)c1cccc(S(=O)(=O)c2cccc(S(=O)(=O)N(CC)CC)c2)c1` [3-[3-(diethylsulfamoyl)phenyl]sulfonyl-N,N-diethyl-benzenesulfonamide]: 23.4 µM; for `CCC(C)OC(=O)c1[nH]c2c(c1C)C(=O)CC(c1ccc(N(C)C)cc1)C2` (centres undefined) [MLS000116530]: 18 µM; for `CCN(CC)C(=O)Oc1ccc2c(=O)c(-c3ccccc3)coc2c1` [(4-oxidanylidene-3-phenyl-chromen-7-yl) N,N-diethylcarbamate]: 27.2 µM.
`COc1ccc2c(c1)-c1nc(NC(=O)c3cccs3)sc1CC2` [N-(8-methoxy-4,5-dihydrobenzo[e][1,3]benzothiazol-2-yl)-2-thiophenecarboxamide]: the EC50 amounted to 20.5 µM.
Still for that read-out and setting: the same measure for `Cc1ccc(Cl)cc1N1CCN(C(=O)COc2ccc(S(=O)(=O)NC(C)C)cc2)CC1` [4-[2-[4-(5-chloranyl-2-methyl-phenyl)piperazin-1-yl]-2-oxidanylidene-ethoxy]-N-propan-2-yl-benzenesulfonamide]: 13.1 µM; for `CCN(CC)c1ccc(-n2c(C)c(C(C)=O)c(C(C)=O)c2C)cc1` [1-[1-[4-(diethylamino)phenyl]-4-ethanoyl-2,5-dimethyl-pyrrol-3-yl]ethanone]: 10.4 µM; for `Cc1nn(Cc2ccccc2)c(C)c1C(=O)OCC(=O)c1cc(C)n(C2CC2)c1C` [1-benzyl-3,5-dimethyl-pyrazole-4-carboxylic acid [2-(1-cyclopropyl-2,5-dimethyl-pyrrol-3-yl)-2-keto-ethyl] ester]: 15.6 µM.
On the same count and under the same terms, the same measure for `CSc1ccc(S(=O)(=O)Nc2ccc3c(c2)OCCO3)cc1` [MLS000115922]: 18 µM; for `Cc1cccc(-c2nc(C#N)c(NC3CCCCC3)o2)c1` [5-(cyclohexylamino)-2-(3-methylphenyl)-1,3-oxazole-4-carbonitrile]: 11.8 µM.
As for `Cc1ccc(Cl)cc1N1CCN(C(=O)C2CCN(c3nnc(-n4cccc4)s3)CC2)CC1` [MLS000119702], the EC50 was 43.3 µM.
Still for that read-out and setting: the same measure for `CCOc1cc(-c2noc(-c3cccnc3)n2)ccc1OC` [3-(3-ethoxy-4-methoxy-phenyl)-5-(3-pyridyl)-1,2,4-oxadiazole]: 18.2 µM.
On the same count and under the same terms, with `Cc1nc2sc(-c3ccccc3)cc2c(=O)n1-n1cccc1` [2-methyl-6-phenyl-3-(1-pyrrolyl)-4-thieno[2,3-d]pyrimidinone] the figure was 17.6 µM; with `Cc1ccc2[nH]c3c(NCc4ccco4)ncnc3c2c1` [MLS000040855], 10.8 µM; with `Cc1ccc2nc(C(F)(F)F)c(C#N)c(N)c2c1` [4-amino-6-methyl-2-(trifluoromethyl)-3-quinolinecarbonitrile], 12 µM.

The values above are taken from BindingDB's records for doi:10.7270/Q2ZC817P (The Scripps Research Institute Molecular Screening Center, 2007).
